Assay results taken from patent publication US20220370566A1, “METHOD AND COMPOSITIONS FOR TREATING DECREASED COGNITIVE ABILITY” (Saint Louis University, priority 2018, published 2022).
Values joined by “and” are separate entries in the source; they are usually repeats but may differ in a detail not shown here. Equal values may be shown once.

Columns and labels:
[1] = tested on: male C57BL/6J (B6) mice, aged 18 months; experiment: Novel Object Recognition test, aged mice treated with adropin^34-76; type: in vivo, mouse
Protocol: For the novel object recognition task, mice are habituated to an empty apparatus, a 58×66×11-cm white plastic box, for 5 min a day for 3 consecutive days prior to entry of objects. On the first day of training, mice are placed in the testing apparatus with two identical objects (A and B). 24h later the animal is reintroduced to the arena but this time one of the original objects is removed and a new object (C). Total time spent exploring each of the two objects is recorded. Anxiety will be assessed using open field and elevated plus maze tests. The experimental apparatus consists of a central platform, two open arms and two equal-sized closed arms opposite to each other. The test consisted of placing a mouse in the central platform facing an enclosed arm and allowing it to freely explore the maze for 5 min. The number of entries into the open and closed arms and the time spent in open arms was measure by an observer blind to treatment
(§1) To examine the effects of endogenous adropin on a subject's cognitive ability, 34 male C57BL/6J (B6) mice, aged 18 months, were treated with exogenous adropin^34-76. Mice were purchased from The Jackson Laboratory (Bar Harbor, Me.). After acclimation for 1 month, mice were separated into two weight matched groups of 15 mice: Group 1 adropin^34-76 treatment group and Group 2 saline vehicle control.
(§2) The mice were administered a single intraperitoneal injection (volume 100 μl) each morning (0900h) for 4 weeks. Group 1 was administered adropin^34-76 at a dose of 90 nmol/kg/day. Group 2 was administered saline. The peptide was purchased from Neoscientific Inc. Behavioral testing began after 2 weeks of injections. Injections continued though testing until 4 weeks.
A non-amnesic subject will spend more time exploring the novel object than the familiar one. When adropin treated and vehicle treated mice were subjected to the Novel Object Recognition test, adropin treated mice spent more time exploring the novel object (FIG. 11, Table 1)

[2] = tested on: male C57BL/6J (B6) mice, aged 18 months; experiment: Aversive T-maze acquisition, aged mice treated with adropin^34-76; type: in vivo, mouse; settings: 90 nmol/kg/day ip
Protocol: (§3) Memory retention and acquisition were assessed using an aversive T-maze and novel objective recognition, as previously described (Farr et al., (2016) J Alzheimers Dis.; 54(4):1339-1348). Briefly, the T-maze consists of a black plastic alley with a start box at one end and two goal boxes at the other. An electrifiable floor of stainless steel rods run throughout the maze to deliver a foot-shock using a scrambled grid floor shocker (Model E13-08, Coulbourn Instruments, Whitehall, Pa.). Mice are not permitted to explore the maze prior to training. A block of training trials begins when mice are placed in the start box. The guillotine door is raised and a cue buzzer sounded simultaneously (doorbell type, at 55 dB); 5s later a mild aversive foot-shock is applied with an intensity of 0.35 mA. The arm of the maze entered on the first trial is designated “incorrect” and the mild foot-shock continued until the mouse enters the other goal box, which in all subsequent trials is designated “correct” for each mouse. Mice are trained until they made one active avoidance, with an inter-trial interval of 30-35s. The number of trials to make one active avoidance is the measure of acquisition. Retention is tested 7d later, with training continued until the criterion of making five active avoidances in six consecutive trials is achieved. The number of trials needed to reach this criterion is the measure of retention (Butler et al., (2012) The Journal of clinical endocrinology and metabolism; 97(10):3783-3791; Wong et al., (2014) The Journal of biological chemistry; 289(37):25976-25986).
as §1, §2
Mice prepared with adropin or placebo in Example 3 were subjected to the Acquisition T-maze test.

[3] = tested on: male C57BL/6J (B6) mice, aged 18 months; experiment: Aversive T-maze retention (retest after 7 days), aged mice treated with adropin^34-76; type: in vivo, mouse; settings: 90 nmol/kg/day ip
Protocol: as §3, §1, §2
(FIG. 12, Table 3) Mice were retested in the maze after 7 days and Adropin treated mice retained learned memories and complete the maze in lets time.

[4] = Body weight and survival during 4 weeks of adropin^34-76 injections; type: in vivo; settings: group 1 (adropin^34-76, 90 nmol/kg/day ip), 15 mice
Protocol: as §1, §2

[5] = tested on: Male C57BL/6J B6 mice subjected to TBI; experiment: T-maze retention after mild closed-head traumatic brain injury (TBI); type: in vivo, mouse
Protocol: FIG. 16 illustrates the results of T-maze data from adropin treated and adropin transgenic mice after traumatic brain injury. SHAM are mice handled but not subject to injury. Veh are mice treated with 0.9% saline. […] (A) Mice used were males, aged 10-14 weeks, purchased from the Jackson laboratory. (B) “TG” are adropin transgenic mice. “WT” are wild-type littermates. All mice were males aged 9-12 months.
Memory retention and acquisition were assessed using an aversive T-maze and novel objective recognition, as previously described (Farr et al., (2016) J Alzheimers Dis.; 54(4):1339-1348). Briefly, the T-maze consists of a black plastic alley with a start box at one end and two goal boxes at the other. An electrifiable floor of stainless steel rods run throughout the maze to deliver a foot-shock using a scrambled grid floor shocker (Model E13-08, Coulbourn Instruments, Whitehall, Pa.). Mice are not permitted to explore the maze prior to training. A block of training trials begins when mice are placed in the start box. The guillotine door is raised and a cue buzzer sounded simultaneously (doorbell type, at 55 dB); 5s later a mild aversive foot-shock is applied with an intensity of 0.35 mA. The arm of the maze entered on the first trial is designated “incorrect” and the mild foot-shock continued until the mouse enters the other goal box, which in all subsequent trials is designated “correct” for each mouse. Mice are trained until they made one active avoidance, with an inter-trial interval of 30-35s. The number of trials to make one active avoidance is the measure of acquisition. […]
(§4) TBI PROCEDURE: Mice were exposed to mild closed-head concussive TBI. […] Adequate anesthesia was determined by the lack of both the corneal reflex and toe pinch reflex. […] Following Isoflurane anesthesia and the weight drop procedure, mouse respiration, heart rate and righting reflex was monitored to ensure recovery. The righting reflex time was recorded for each mouse. […] When the mouse moves from a supine to a prone position, i.e., rights itself, the time will be recorded. […]

plasma cytokine levels = experiment: Plasma cytokine levels after TBI; type: in vivo, mouse; settings: TBI followed by adropin vs TBI followed by saline
Protocol: FIG. 17 illustrates plasma cytokine levels of mice that were: uninjured, subjected to TBI, and subjected to TBI followed by adropin injections.
TBI PROCEDURE: Mice were exposed to mild closed-head concussive TBI. Mice were anesthetized with isoflurane 2-4% and placed under a device consisting of a Plexiglas tube (inner diameter 13 mm) placed vertically over the animal's head. Adequate anesthesia was determined by the lack of both the corneal reflex and toe pinch reflex. Each mouse received 90 sec Isoflurane anesthesia in the induction chamber. The injury was induced by dropping a 25-gm acrylic weight from 80 cm height down the Plexiglas tube, striking the skull. This weight was chosen based upon literature using this type of device (Tweedie et al. (2016) PLoS One. 11(6):e0156493; Zohar et al. (2011) Acta Neurobiol Exp. 71:36-45). […] Following Isoflurane anesthesia and the weight drop procedure, mouse respiration, heart rate and righting reflex was monitored to ensure recovery. The righting reflex time was recorded for each mouse. […] When the mouse moves from a supine to a prone position, i.e., rights itself, the time will be recorded. […] One hour following the weight drop injury four reflexes were checked and recorded: the corneal reflex in both eyes, hindleg extension when held by the tail, startle response from a puff of air, and the ability to walk with a normal gate. […]

[6] = tested on: Hippocampal gene expression; experiment: Hippocampal gene expression (cytokines, growth factors) after TBI; type: in vivo, mouse; settings: TBI+Adr vs TBI+veh and Sham
Protocol: FIG. 18 illustrates Hippocampal gene expression. There are increases in the expression of cytokines (significant for IL16, CCI2, IL17) in the hippocampus of TBI-veh mice versus uninjured (sham) controls TBI also appears to result in changes in expression of growth factors (BDNF, VEGF). In most cases, these changes were attenuated by adropin treatment.
Gene expression was assessed using qRT-PCR as previously described. Hippocampal and cortical tissue samples were dissected from fresh brains and snap frozen brains on dry-ice cold isopentane. Total RNA was extracted using Trizol (Invitrogen, Life Technologies) and treated with a DNAfree kit (Ambion, Life Technologies). […] Quantitative PCR was performed in 96-well plates using Taqman gene expression and QuantStudio 7 Detection Systems (Applied Biosystems, Life Technologies); 36B4 was used as the reference gene.
as §4

[7] = Metabolic effect of adropin^34-76 administration in mice; type: in vivo, mouse; settings: delivered as two 45 nmol/kg injections
Description: (§5) Using mice, the Inventors have shown that administration of adropin^34-76, in doses as low as 90 nmol/kg/day, delivered as two 45 nmol/kg injections, can be effective in producing changes in metabolism. Dose as high as 900 nmol/kg/d are well tolerated in mice. While the doses required for a desired clinical effect in humans is expected to vary between patients, the 90 nmol/kg dose administered by subcutaneous, intramuscular, or intravenous injection, either once or twice a day, may represent a preferred treatment protocol. It is anticipated that the treatments would be administered daily, although long-acting formulations involving weekly injections are envisaged. The optimum dose and frequency for a particular subject may be determined by the patient's treating physician, based on the patient's cognitive response. It is anticipated that adropin therapy may or may not improve a subject's cognitive function relative to current baseline, however adropin therapy may result in significant delays in the advancement of the disease. Improvement may manifest as a significant delay or a reduced rate of subsequent cognitive decline.

[8] = Tolerability of adropin^34-76 in mice; type: in vivo, mouse
Description: as §5

[9] = tested on: subjects with diet-induced obesity; settings: Kumar et al. 2008, Gao et al. 2014, 2015; cited from earlier work
[10] = n = 14, SEM in next cell, P <0.0001 vs vehicle

## adropin^34-76 (CHSRSADVDSLSESSPNSSPGPCPEKAPPPQKPSHEGSYLLQP; Adropin; UniProt Q6UWT2 34-76, looked up, fragment)
[1]; 90 nmol/kg/day ip
  Novel Object Recognition, result in words vs vehicle treated mice: improved cognitive performance
[1]; 90 nmol/kg/day ip, vehicle mean 43.90
  Novel Object Recognition, difference between means (Adropin vs. Vehicle): 14.99
[1]; n = 15, SEM in next cell, P 0.0183 vs vehicle, unpaired t test, 90 nmol/kg/day ip
  Novel Object Recognition, mean (Adropin): 58.88
[1]; one value per mouse, 90 nmol/kg/day ip for 4 weeks, testing after 2 weeks
  Novel Object Recognition test, 24 Hour delay % Novel Object (individual mice): 55.56% and 77.50% and 66.67% and 79.10% and 51.06% and 100.00% and 51.61% and 46.43% and 42.86% and 53.06% and 37.50% and 40.74% and 64.58% and 62.50% and 58.82%
[2]
  T-maze acquisition, result in words vs placebo treated mice: performed better
[2]; vehicle mean 10.80
  T-maze acquisition, difference between means (Adropin vs. Vehicle): −3.443
[2]; [10]
  T-maze acquisition, mean (Adropin): 7.357
[2]; one value per mouse, number of trials to make one active avoidance
  T-maze acquisition (individual mice): 7. (5×) and 8. (4×) and 9. (2×) and 6. (3×)
[3]; vehicle mean 9.200
  T-maze Retention, difference between means (Adropin vs. Vehicle): −2.343
[3]; [10]
  T-maze Retention, mean (Adropin): 6.857
[3]; one value per mouse, trials to five active avoidances in six consecutive trials, 7 d later
  T-maze Retention (individual mice): 7. (7×) and 8. and 6. (5×) and 9.
[3]; retested after 7 days
  T-maze retention, result in words vs vehicle: superior performance
[4]
  deaths during treatment: One mouse in group 1 died
[5]; 450 nmol/kg iv at 1 h and 450 nmol/kg ip at 24 h post-injury, male B6 mice
  deficits in spatial learning and memory after TBI: exhibited protection from deficits in spatial learning and memory
[5]; TBI+Adro vs SHAM+Veh
  T-maze retention after TBI, compared with uninjured vehicle treated controls: not significantly different
[5]; TBI+Adro vs TBI+Veh, injections 1 h and 24 h post-injury, ** 99% confidence
  T-maze retention after TBI, compared with TBI followed by saline: significantly improved
Plasma cytokine levels
  plasma cytokine levels after TBI, in words: possible reduction in inflammatory responses to TBI
[6]
  TBI-induced changes in hippocampal cytokine and growth factor expression, in words: these changes are attenuated in most cases
[7]
  dose effective in producing changes in metabolism: ≥ 90 nmol/kg/day
[8]
  dose well tolerated: ≤ 900 nmol/kg/day
[9]
  metabolic changes after intraperitoneal injection, in words: metabolic changes suggesting improvements in glucose control and reduced risk for type 2 diabetes
